Laboratory results reported in patent US10376593B2, “Glycoconjugates and their use as potential vaccines against infection by Shigella flexneri” (INSTITUT PASTEUR, priority 2012, dated 2019).

These molecules were tested against mIgG A22-4′ (anti-S. flexneri serotype 6 LPS monoclonal antibody) binding to SF6 LPS (assay: Inhibition ELISA: binding of mIgG A22-4′ to synthetic oligosaccharides (inhibition of mIgG binding to SF6 LPS)). Conditions: concentration of oligosaccharide required to inhibit 50% of mIgG A22-4′ (0.025 μg/ml) binding to purified SF6 LPS (strain Sc544); oligosaccharides tested as propyl glycoside; max 2.5 mM; ≤ = inferior to but close to the value.
Parameters: species or system mouse
Method: 2) ELISA for IC50 Measurements
The binding of the available mIgG A22-4′ to the synthetic oligosaccharides was measured as previously described (Phalipon A. et al (J. Immunol. 176 1686 (2006)). Briefly, the mIgG concentration to be used was defined in the first step. To do so, a standard curve was established for mIgG A22-4′. The mIgG was incubated at different concentrations, overnight at 4° C., on microtiter plates coated with SF6 LPS purified from the strain SF6 Sc544 at a concentration of […] in a carbonate buffer (pH 9.6), then with PBS-BSA 1% for 30 min at 4° C. After washing with PBS-Tween 20 (0.05%), alkaline phosphatase conjugated anti-mouse IgG was added at a dilution of 1/5,000 (Sigma-Aldrich) for 1 h at 37° C. After washing with PBS-Tween 20 (0.05%), the substrate was added (12 mg of p-nitrophenyl phosphate in 1.2 mL of 1 M Tris-HCl buffer (pH 8.8) and 10.8 mL of 5 M NaCl). Once the color developed, the plate was read at 405 nm Dynatech MR400 microplate reader). A standard curve OD=f([Ab]) was fitted to the quadratic equation Y=aX2+bX+c, where Y is the OD and X is the Ab concentration. A correlation factor (r^2) of 0.99 was routinely obtained. The mIgG A22-4′ concentration to be used in the second step for measuring the IC50, which is defined as the concentration of oligosaccharides required to inhibit 50% of mIgG binding to LPS, was chosen as follows. It corresponds to the minimal concentration of mAb which gives the maximal OD on the standard curve.
The maximum concentration tested was 2.5 mM for all oligosaccharides. Then, measurement of unbound mIgG was performed as described above using microtiter plates coated with purified SF6 LPS. The mAb concentration was deduced from the standard curve. A 100% unbound mIgG concentration was defined for the mAb incubated in the same conditions but without any oligosaccharide. […]
The binding of mIgG A22-4′ to the synthetic and oligo- or polysaccharides was evaluated in inhibition ELISA (Table B)
In the case of `CCCO[C@@H]1O[C@H](CO)[C@H](O)[C@H](O[C@@H]2O[C@H](C(=O)O)[C@H](O[C@@H]3O[C@@H](C)[C@H](O)[C@@H](O)[C@H]3O[C@@H]3O[C@@H](C)[C@H](O)[C@@H](OC(C)=O)[C@H]3O)[C@H](O)[C@H]2O)[C@H]1NC(C)=O` [AcCDAB, Propyl 3-O-acetyl-α-L-rhamnopyranosyl-(1→2)-α-L-rhamnopyranosyl-(1→4)-β-D-galactopyranosyluronic acid-(1→3)-2-acetamido-2-deoxy-β-D-galactopyranoside], the IC50 is reported as 36 µM. In the case of `CCCO[C@@H]1O[C@@H](C)[C@H](O)[C@@H](OC(C)=O)[C@H]1O[C@@H]1O[C@H](CO)[C@H](O)[C@H](O[C@@H]2O[C@H](C(=O)O)[C@H](O[C@@H]3O[C@@H](C)[C@H](O)[C@@H](O)[C@H]3O[C@@H]3O[C@@H](C)[C@H](O)[C@@H](OC(C)=O)[C@H]3O)[C@H](O)[C@H]2O)[C@H]1NC(C)=O` [AcCDABAcC, Propyl 3-O-acetyl-α-L-rhamnopyranosyl-(1→2)-α-L-rhamnopyranosyl-(1→4)-β-D-galactopyranosyluronic acid-(1→3)-2-acetamido-2-deoxy-β-D-galactopyranosyl-(1→2)-3-O-acetyl-α-L-rhamnopyranoside], the IC50 is reported as ≤ 500 µM. `CCCO[C@@H]1O[C@H](CO)[C@H](O)[C@H](O[C@@H]2O[C@H](C(=O)O)[C@H](O[C@@H]3O[C@@H](C)[C@H](O)[C@@H](O)[C@H]3O[C@@H]3O[C@@H](C)[C@H](O)[C@@H](O)[C@H]3O)[C@H](O)[C@H]2O)[C@H]1NC(C)=O` [CDAB, Propyl α-L-rhamnopyranosyl-(1→2)-α-L-rhamnopyranosyl-(1→4)-β-D-galactopyranosyluronic acid-(1→3)-2-acetamido-2-deoxy-β-D-galactopyranoside] was tested, and the IC50 was 16 µM.
